Patent publication US4520022A, “Substituted vinyl cephalosporins” (priority 1983, dated 1985)
Converted amounts (≈) assume the structure as drawn.

Test system: B. fragilis
Assay: In vitro activity against anaerobes (MIC), B. fragilis
Type: cell-based
Details: Bacteroides fragilis, B. fragilis A21900; β-lactamase (-); clindamycin resistant

SMILES: CC1=C(C(=O)O)N2C(=O)[C@@H](NC(=O)[C@H](N)c3ccccc3)[C@H]2SC1 [Cephalexin]
- MIC: 12.5 mg/L (≈ 36 µM)
